Reference: BindingDB's records for doi:10.1021/acs.jmedchem.7b01492 (Peking University, 2019)

Biological target: Neuronal acetylcholine receptor subunit alpha-7 (Homo sapiens, UniProt P36544)
Assay: Positive allosteric modulation of human alpha7 nAChR expressed in Xenopus laevis oocytes assessed as increase in acetylcholine-induced channel current by measuring acetylcholine EC50 at 10 uM at -90 mV holding potential preincubated for 2 mins followed by co-application with acetylcholine for 10 secs by two-electrode voltage clamp method (Rvb = 256.4 +/- 20.1 uM)

Chain of Neuronal acetylcholine receptor subunit alpha-7 (P36544 whole entry): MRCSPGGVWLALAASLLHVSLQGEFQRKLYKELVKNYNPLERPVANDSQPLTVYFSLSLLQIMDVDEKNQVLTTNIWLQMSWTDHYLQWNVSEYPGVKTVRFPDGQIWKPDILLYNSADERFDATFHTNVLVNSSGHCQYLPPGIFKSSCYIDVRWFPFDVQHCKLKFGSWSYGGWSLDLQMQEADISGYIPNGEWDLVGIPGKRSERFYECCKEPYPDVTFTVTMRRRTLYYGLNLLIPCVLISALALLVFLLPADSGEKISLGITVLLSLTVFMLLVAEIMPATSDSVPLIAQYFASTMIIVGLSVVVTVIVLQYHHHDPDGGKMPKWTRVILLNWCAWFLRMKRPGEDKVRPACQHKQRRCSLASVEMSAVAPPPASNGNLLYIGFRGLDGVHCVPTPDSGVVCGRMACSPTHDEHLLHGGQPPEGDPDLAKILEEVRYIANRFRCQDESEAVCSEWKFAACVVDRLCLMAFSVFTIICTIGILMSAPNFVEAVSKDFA

EC50: 187 µM
Structure (SMILES): Cc1cccc(Cl)c1-n1cnc2nc(SCc3ccccc3)sc2c1=O
